Test results: patent publication US20240108684A1, “DOSING REGIMENS FOR TREATMENT OF FUNGAL INFECTIONS” (priority 2016, published 2024)
Read-outs that look alike come from different tables or passages of the source. *1 amine or outer side, *2 acyl side, *3 side chain or, on linkers, in order; H or OH if unused. Where a SMILES comes first, the peptide text is derived from it. Bridges are numbered along the chain shown (N, C = ends). [ ]: non-standard residue; d: D form. The star is where a group is joined. Orn(4R-OH,5R-OCH2CH2NMe3+) = C[N+](C)(C)CCO[C@@H](N[*:3])[C@H](O)C[C@H](N[*:1])C(=O)[*:2]; pTerphenylCO(4''-OnC5H11) = CCCCCOc1ccc(-c2ccc(-c3ccc(C(=O)*)cc3)cc2)cc1; hTyr(3S-OH,4S-OH) = N[C@H](C(=O)O)[C@H](O)[C@@H](O)c1ccc(O)cc1; Pro(3S-OH,4S-Me) = C[C@H]1CN[C@H](C(=O)O)[C@H]1O; Hyp = O=C(O)[C@@H]1C[C@@H](O)CN1

How the values were obtained:
C. albicans [1] = settings: Sentry 2014; compared with MIC of 0.5 mg/L; cited from earlier work
[2] = PK model, free-drug plasma concentration-time profiles of fractionated regimens; design: species or system mice
Protocol: Pharmacokinetic-Pharmacodynamic Analyses. Using the data collected from the PK study, a PK model was developed in S-ADAPT. Using the developed PK model, concentration-time profiles and AUC0-168h values were computed for each dosing regimen administered in the dose-fractionation study. […] Relationships between the change in log10 CFU from start of therapy and AUC0-168h were explored.

C. albicans (R357) = assay: Disseminated infection model with C. albicans R357, kidney fungal counts; assay type: in vivo, ICR mice
[3] = Plasma protein binding assumed for the simulations; assay type: in vitro ADME; settings: assumed for the Monte Carlo simulations
Protocol: (§1) Monte Carlo simulations were conducted to assess the probability of PK-pharmacodynamic (PD) target attainment using a variety of exploratory dosing regimens. Two dosing regimens were selected for further investigation (Table 5). […] Nonclinical studies of Candida albicans infections in mice have shown that a CD101 fAUC0-168:MIC ratio of 10 has been associated with a 2-log reduction in fungal burden in infected kidneys. This value of 10 was therefore chosen as the PK-PD target of interest for the Monte Carlo simulations.

C. albicans [4] = assay: MIC by CLSI standards; settings: Candida albicans
Murine protein binding = assay type: in vitro ADME; settings: used to generate free-drug plasma concentrations
C.albicans (Strain R303) [5] = assay: Dose-fractionation study in neutropenic mice, kidney fungal burden; settings: 2 mg/kg as a single dose IP, at 168 hours
Protocol: Dose-Fractionation Study. Male or female ICR mice (5 per regimen and observation time) weighing 22±2 g were rendered neutropenic for the study by injecting the mice with cyclophosphamide treatment four days (−Day 4) (150 mg/kg IP) and one day (−Day 1) prior to infection at 100 mg/kg IP. Neutropenia was sustained for the duration of the study with cyclophosphamide doses (100 mg/kg IP) every 48 hours on days +1, +3, +5 and +7 after infection.
Mice were sacrificed 168 hours (7 days) following the start of treatment. Control arm mice were sacrificed 0, 24, and 48 hours post administration of vehicle. Paired kidneys are aseptically harvested, homogenized, and plated for colony counts to determine the fungal burden (CFU/g).

C. albicans [6] = assay: Neutropenic murine disseminated candidiasis model, PK/PD; settings: for 1 log kill dose / Static Dose: single IP dose
[7] = Modeling of CD101 total plasma concentrations versus MPC; settings: modeling based on in vivo PK data
Excerpt: (§2) Selection of resistance strains in vivo predominantly occurs over a range of drug concentrations falling between the MIC and MPC values. Dosing paradigms that result in plasma drug concentrations in excess of the MPC are therefore more desirable and effective in preventing the development of de novo mutants during the course of therapy (see, e.g., Drlica et al., J. Antimicrob. Chemother. 52:11-17, 2003). Currently approved treatment regimens for caspofungin, micafungin, and anidulafungin involve once-daily dosing at levels such that the Cmax is unlikely to be equivalent to or exceed the MPC at any point during treatment.

glabrata = settings: Sentry 2014; compared with MIC of 0.5 mg/L; cited from earlier work
[8] = Single dose plasma PK after IP doses; settings: mouse, 64 mg/kg
[9] = tested on: Aspergillus fumigatus (ATCC 13073); assay: Neutropenic mouse model of aspergillosis, survival; assay type: in vivo, mice; settings: 2 mg/kg IV or IP one dose; 10 days; P<0.05
Candida albicans = assay: Nonclinical studies of Candida albicans infections in mice (PK-PD target); assay type: in vivo
Protocol: as §1

C. glabrata [10] = assay: Mutant prevention concentration (MPC); assay type: cell-based, Candida glabrata
Excerpt: (§3) As used herein, the term “mutant prevention concentration” or “MPC” refers to the concentration of a drug sufficient to suppress the development of all but very rare spontaneous mutants. The range of drug concentrations between the MIC and MPC represents a mutant selection window wherein de novo mutants are most likely to occur. Therapeutic regimens that maximize the duration of drug concentrations in excess of the MPC thereby minimize the potential for resistance development during the course of therapy.
as §2

C. albicans [11] = assay: Mutant prevention concentration (MPC); assay type: cell-based, Candida albicans
Excerpt: as §3, §2

C. glabrata [12] = assay: MIC by CLSI standards; settings: Nakaseomyces glabratus
C. glabrata [13] = assay: Neutropenic murine disseminated candidiasis model, PK/PD; settings: for 1 log kill dose / Static Dose: single IP dose, 7 days
[14] = Solubility of test articles in vehicle, visual observation; settings: 10% DMSO/1% Tween 20 in 0.9% NaCl; 0.3, 1 and 3 mg/mL
Protocol: Amphotericin B and fluconazole were in powder form. Amphotericin B was dissolved in 0.9% NaCl. Fluconazole was dissolved in water (WFI: water for injection).

C.albicans (Strain R303) [15] = assay: MIC of the infecting strain R303; settings: Candida albicans

CCCCCOc1ccc(-c2ccc(-c3ccc(C(=O)N[C@H]4C[C@@H](O)[C@@H](OCC[N+](C)(C)C)NC(=O)[C@@H]5[C@@H](O)[C@@H](C)CN5C(=O)[C@H]([C@@H](C)O)NC(=O)[C@H]([C@H](O)[C@@H](O)c5ccc(O)cc5)NC(=O)[C@@H]5C[C@@H](O)CN5C(=O)[C@H]([C@@H](C)O)NC4=O)cc3)cc2)cc1 [CD101] ({pTerphenylCO(4''-OnC5H11)}-[Orn(4R-OH,5R-OCH2CH2NMe3+)]T[Hyp][hTyr(3S-OH,4S-OH)]T[Pro(3S-OH,4S-Me)]; lactam 1-C)
MIC90 (C. albicans [1]): 0.06 µg/mL | Time free-drug plasma concentrations of single dose remain above the daily regimen ([2]; 2 mg/kg total dose): 48 h | Time free-drug plasma concentrations of single dose remain above the twice weekly regimen ([2]; 2 mg/kg total dose): 84 h | Free-drug plasma AUC0≥ ([2]; CD101 2 mg/kg as a single dose): 0.0654 mgh/L | Free-drug plasma AUC0≥ ([2]; CD101 2 mg/kg total, daily regimen): 0.00948 mgh/L | Free-drug plasma AUC0≥ ([2]; CD101 2 mg/kg total, twice weekly): 0.0303 mgh/L | Antimicrobial effect versus vehicle (kidney fungal counts) (C. albicans (R357); 3, 10, and 30 mg/kg IP once, 48 and 72 hr after infection): Significant antimicrobial effects (P<0.05) | Reduction in fungal counts (C. albicans (R357); all CD101 groups (3, 10, 30 mg/kg IP), 48 and 72 hr): two log reduction | Plasma protein binding [3]: 99.1% | MIC (C. albicans [4]; C. albicans 98-17): 0.06 µg/mL | MIC (C. albicans [4]; C. albicans 98-210): 0.016 µg/mL | MIC (C. albicans [4]; C. albicans 580): 0.016 µg/mL | MIC (C. albicans [4]; C. albicans K-1): 0.008 µg/mL | MIC (C. albicans [4]; read-out: MICs, 4 C. albicans strains): 0.008 to 0.06 µg/mL | Murine protein binding value (Murine protein binding): 99.1% | CFU reduction from baseline (C.albicans (Strain R303) [5]): greater than 2 log10 CFU | 1 log kill Ave 24 h AUC/MIC (C. albicans [6]; C. albicans 98-17): 490 | Stasis Ave 24 h AUC/MIC (C. albicans [6]; C. albicans 98-17): 274 | 1 log kill dose (C. albicans [6]; C. albicans 98-17, 7 days): 2.73 mg/kg | Static Dose (C. albicans [6]; C. albicans 98-17, 7 days): 1.34 mg/kg | 1 log kill Ave 24 h AUC/MIC (C. albicans [6]; C. albicans 98-210): 1574 | Stasis Ave 24 h AUC/MIC (C. albicans [6]; C. albicans 98-210): 868 | 1 log kill dose (C. albicans [6]; C. albicans 98-210, 7 days): 2.28 mg/kg | Static Dose (C. albicans [6]; C. albicans 98-210, 7 days): 1.06 mg/kg | 1 log kill Ave 24 h AUC/MIC (C. albicans [6]; C. albicans 580): 1429 | Stasis Ave 24 h AUC/MIC (C. albicans [6]; C. albicans 580): 948 | 1 log kill dose (C. albicans [6]; C. albicans 580, 7 days): 2.03 mg/kg | Static Dose (C. albicans [6]; C. albicans 580, 7 days): 1.20 mg/kg | 1 log kill Ave 24 h AUC/MIC (C. albicans [6]; C. albicans K-1): 6435 | Stasis Ave 24 h AUC/MIC (C. albicans [6]; C. albicans K-1): 3426 | 1 log kill dose (C. albicans [6]; C. albicans K-1, 7 days): 5.26 mg/kg | Static Dose (C. albicans [6]; C. albicans K-1, 7 days): 2.52 mg/kg | Maximal kill (C. albicans [6]; C. albicans and C. glabrata strains, 0.016-64 mg/kg once IP, 7 days): over 2 log10 CFU/kidney | IV dose sufficient to generate concentrations in excess of 16 μg/ml (MPC) [7]: ≥ 150 mg | MIC90 (glabrata): 0.06 µg/mL | AUC(0-inf) [8]: 93 to 4050 µg·h/mL | Cmax [8]: 2600 to 77000 ng/mL | half-life [8]: 28 to 41 h | Survival versus vehicle [9]: significantly longer survival than vehicle | fAUC0-168:MIC ratio associated with a 2-log reduction in fungal burden in infected kidneys (Candida albicans): 10 | MPC (C. glabrata [10]): 16 µg/mL | MPC (C. albicans [11]): 16 µg/mL | MIC (C. glabrata [12]; C. glabrata 5592): 0.06 µg/mL | MIC (C. glabrata [12]; C. glabrata 10956): 0.5 µg/mL | MIC (C. glabrata [12]; C. glabrata 35315): 0.25 µg/mL | MIC (C. glabrata [12]; read-out: MICs, 3 C. glabrata strains): 0.06 to 0.5 µg/mL | 1 log kill Ave 24 h AUC/MIC (C. glabrata [13]; C. glabrata 5592): 114 | Stasis Ave 24 h AUC/MIC (C. glabrata [13]; C. glabrata 5592): 21.7 | 1 log kill dose (C. glabrata [13]; C. glabrata 5592): 0.51 mg/kg | Static Dose (C. glabrata [13]; C. glabrata 5592): 0.03 mg/kg | 1 log kill Ave 24 h AUC/MIC (C. glabrata [13]; C. glabrata 10956): 301 | Stasis Ave 24 h AUC/MIC (C. glabrata [13]; C. glabrata 10956): 120 | 1 log kill dose (C. glabrata [13]; C. glabrata 10956): 17.3 mg/kg | Static Dose (C. glabrata [13]; C. glabrata 10956): 6.29 mg/kg | 1 log kill Ave 24 h AUC/MIC (C. glabrata [13]; C. glabrata 35315): 105 | Stasis Ave 24 h AUC/MIC (C. glabrata [13]; C. glabrata 35315): 17.9 | 1 log kill dose (C. glabrata [13]; C. glabrata 35315): 2.39 mg/kg | Static Dose (C. glabrata [13]; C. glabrata 35315): 0.34 mg/kg | Solubility [14]: S | MIC (C.albicans (Strain R303) [15]): 0.125 µg/mL
